We go through 17 compounds from patent US8106055B2, “Substituted amide compounds” (Gruenenthal GmbH, priority 2007, dated 2012).

One assay deals with T1, human μ opiate receptor (Homo sapiens, UniProt P35372).
T1 construct: purchased PerkinElmer Life Sciences, Zaventem, Belgium RB-HOM; host or cells: CHO-K1 cells (membrane preparation)
The assay is described as follows: Affinity for the human μ opiate receptor ([3H]-naloxone displacement, CHO-K1 receptor membrane preparation, SPA). Format: binding. The note with it: 1.5 h, Table 3, to be read in the same way as Table 1; test concentration 1 μM; read-out: μ. The method in brief:
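Readout is percent displacement of [3H]-naloxone (1 nmol/l) from human μ receptor in CHO-K1 membranes, measured at 1 μmol/l compound. Incubation runs 90 minutes at room temperature with WGA-SPA beads in Tris-HCl/BSA buffer; non-specific binding is defined with 100 μmol/l naloxone.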

The target in assay [1] is T2, human bradykinin 1 receptor (B1R) (Homo sapiens, UniProt P46663).
T2 construct: expressed in transfected cells; host or cells: CHO K1 cells
T2 sequence (P46663 1-353): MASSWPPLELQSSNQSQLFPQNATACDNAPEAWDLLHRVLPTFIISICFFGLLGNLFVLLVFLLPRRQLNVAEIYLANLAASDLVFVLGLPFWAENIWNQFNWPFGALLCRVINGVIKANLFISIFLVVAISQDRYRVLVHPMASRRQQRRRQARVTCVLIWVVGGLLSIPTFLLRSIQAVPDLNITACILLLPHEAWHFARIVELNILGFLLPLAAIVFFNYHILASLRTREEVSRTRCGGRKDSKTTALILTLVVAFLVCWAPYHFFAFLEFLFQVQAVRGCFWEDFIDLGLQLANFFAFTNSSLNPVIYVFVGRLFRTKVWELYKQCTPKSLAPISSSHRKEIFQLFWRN
The assay is described as follows: Functional investigation on the human bradykinin 1 receptor (B1R), Ca2+ FLIPR assay in CHO K1 hB1R cells. Format: cell-based. The conditions noted are these: CHO-K1, B1R antagonism human; test substance 10 μM; Ca2+ FLIPR, CHO K1 hB1R cells; read-out: B1R Ant. h [10 μM] % Inhibition. In short, it runs like this: (§1)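 Stably transfected CHO K1 cells loaded with Fluo-4; FLIPR Ca2+ fluorescence peak (ex 488/em 540 nm). Compound added first (agonism vs Lys-Des-Arg9-bradykinin ≥50 nM human, Des-Arg9-bradykinin 10 μM rat), then after 10-20 min agonist at EC80; antagonism as % inhibition, IC50 from concentration series, n=2-3, N≥2.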

The target of assay [2] is T3, bradykinin 1 receptor (B1R) of the rat (Rattus norvegicus, UniProt P97583).
T3 construct: expressed in transfected cells; host or cells: CHO K1 cells
T3 sequence (P97583 1-337): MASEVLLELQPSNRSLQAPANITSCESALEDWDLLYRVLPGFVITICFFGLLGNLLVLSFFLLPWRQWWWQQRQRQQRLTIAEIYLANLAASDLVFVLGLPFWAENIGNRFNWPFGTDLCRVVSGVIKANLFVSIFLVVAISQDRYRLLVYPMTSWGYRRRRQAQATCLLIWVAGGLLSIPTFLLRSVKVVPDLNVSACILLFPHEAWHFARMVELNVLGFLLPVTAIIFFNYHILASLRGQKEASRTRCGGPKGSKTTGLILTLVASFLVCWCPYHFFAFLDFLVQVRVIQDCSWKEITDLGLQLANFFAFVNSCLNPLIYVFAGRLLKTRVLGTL
The assay is described as follows: Functional investigation on the rat bradykinin 1 receptor (B1R), Ca2+ FLIPR assay in CHO K1 rB1R cells. Format: cell-based. The conditions noted are these: CHO-K1, B1R antagonism rat; test substance 10 μM; Ca2+ FLIPR, CHO K1 rB1R cells; read-out: B1R Ant. r [10 μM] % Inhibition. The method in brief: as §1

T1 sequence (P35372 whole entry): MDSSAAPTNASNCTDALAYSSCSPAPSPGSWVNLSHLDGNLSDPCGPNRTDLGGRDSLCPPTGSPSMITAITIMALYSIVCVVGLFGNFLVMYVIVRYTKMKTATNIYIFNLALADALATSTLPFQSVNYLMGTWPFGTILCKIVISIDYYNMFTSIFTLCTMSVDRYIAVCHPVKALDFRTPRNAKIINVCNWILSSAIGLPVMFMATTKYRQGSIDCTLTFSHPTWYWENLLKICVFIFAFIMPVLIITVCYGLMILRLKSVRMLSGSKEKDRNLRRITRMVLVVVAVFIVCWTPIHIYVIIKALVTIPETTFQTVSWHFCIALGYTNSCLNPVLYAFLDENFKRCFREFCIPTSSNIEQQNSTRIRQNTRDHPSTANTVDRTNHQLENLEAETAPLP

Take `CN(CCOCC(=O)NCC1CCC(C(CCc2ccccc2)N2CCOCC2)CC1)S(=O)(=O)c1ccc(Cl)cc1Cl` (stereo not drawn) [Example 716, 2-(2-(2,4-dichloro-N-methylphenylsulfonamido)ethoxy)-N-((4-(1-morpholino-3-phenylpropyl)cyclohexyl)methyl)acetamide]: the inhibition at 1 µM on human μ opiate receptor stood at 13%. Also, the inhibition at 10 µM in assay [1] worked out at 59%; in assay [2], 31%.

On to `CN(CCOCC(=O)NCC1CCC(C(CCc2ccccc2)N2CCCC2)CC1)S(=O)(=O)c1ccc(Cl)cc1Cl` (stereo not drawn) [Example 717, 2-(2-(2,4-dichloro-N-methylphenylsulfonamido)ethoxy)-N-((4-(3-phenyl-1-(pyrrolidin-1-yl)propyl)cyclohexyl)methyl)acetamide], for which the inhibition at 1 µM on human μ opiate receptor amounted to 22%. Also, the inhibition at 10 µM in assay [1] was 100%; in assay [2], 88%.

Turning to `COc1cc(C)c(S(=O)(=O)N(C)CCOCC(=O)NCC2CCC(C(c3ccccc3)N3CCOCC3)CC2)c(C)c1` (stereo not drawn) [Example 718, 2-(2-(4-methoxy-N,2,6-trimethylphenylsulfonamido)ethoxy)-N-((4-(morpholino(phenyl)methyl)cyclohexyl)methyl)acetamide], the inhibition at 1 µM at human μ opiate receptor stood at 4%. For the same compound, the inhibition at 10 µM in assay [1] worked out at 105%; in assay [2], 96%.

Take `COc1cc(C)c(S(=O)(=O)N(C)CCOCC(=O)NCC2CCC(C(CCc3ccccc3)N3CCOCC3)CC2)c(C)c1` (stereo not drawn) [Example 719, 2-(2-(4-methoxy-N,2,6-trimethylphenylsulfonamido)ethoxy)-N-((4-(1-morpholino-3-phenylpropyl)cyclohexyl)methyl)acetamide]: the inhibition at 1 µM on human μ opiate receptor stood at 6%. The inhibition at 10 µM in assay [1] stood at 103%; in assay [2], 101%.

For `COc1cc(C)c(S(=O)(=O)N(C)CCOCC(=O)NCC2CCC(C(CCc3ccccc3)N3CCCC3)CC2)c(C)c1` (stereo not drawn) [Example 720, 2-(2-(4-methoxy-N,2,6-trimethylphenylsulfonamido)ethoxy)-N-((4-(3-phenyl-1-(pyrrolidin-1-yl)propyl)cyclohexyl)methyl)acetamide], at human μ opiate receptor, the inhibition at 1 µM was determined as 26%. The inhibition at 10 µM in assay [1] and in assay [2] was 101% each time.

Turning to `CN(CCOCC(=O)NCC1CCC(C(CCc2ccccc2)N2CCOCC2)CC1)S(=O)(=O)c1c(Cl)cccc1Cl` (stereo not drawn) [Example 721, 2-(2-(2,6-dichloro-N-methylphenylsulfonamido)ethoxy)-N-((4-(1-morpholino-3-phenylpropyl)cyclohexyl)methyl)acetamide], at human μ opiate receptor, the inhibition at 1 µM was 7%. The inhibition at 10 µM is 94% in assay [1] and 57% in assay [2].

Regarding `CN(CCOCC(=O)NCC1CCC(C(CCc2ccccc2)N2CCCC2)CC1)S(=O)(=O)c1c(Cl)cccc1Cl` (stereo not drawn) [Example 722, 2-(2-(2,6-dichloro-N-methylphenylsulfonamido)ethoxy)-N-((4-(3-phenyl-1-(pyrrolidin-1-yl)propyl)cyclohexyl)methyl)acetamide], the inhibition at 1 µM on human μ opiate receptor came out at 32%. Besides, the figures for the inhibition at 10 µM in assay [1] and in assay [2] were 101% and 89%, respectively.

In the case of `O=C(COC1CCN(S(=O)(=O)c2c(Cl)cc(Cl)cc2Cl)C1)NCC1CCC(C(CCc2ccccc2)N2CCCC2)CC1` (stereo not drawn) [Example 723, N-((4-(3-phenyl-1-(pyrrolidin-1-yl)propyl)cyclohexyl)methyl)-2-(1-(2,4,6-trichlorophenylsulfonyl)pyrrolidin-3-yloxy)acetamide], the inhibition at 1 µM at human μ opiate receptor is 35%. The inhibition at 10 µM in assay [1] amounted to 90%; in assay [2] it was 40%.

For the compound `COc1cc(C)c(S(=O)(=O)N2CCC(OCC(=O)NCC3CCC(C(c4ccccc4)N4CCOCC4)CC3)C2)c(C)c1` (stereo not drawn) [Example 724, 2-(1-(4-methoxy-2,6-dimethylphenylsulfonyl)pyrrolidin-3-yloxy)-N-((4-(morpholino(phenyl)methyl)cyclohexyl)methyl)acetamide], the inhibition at 1 µM on human μ opiate receptor turned out to be 8%. For the same compound, the inhibition at 10 µM in assay [1] was 55%; in assay [2] it was 50%.

As for `COc1cc(C)c(S(=O)(=O)N2CCC(OCC(=O)NCC3CCC(C(CCc4ccccc4)N4CCOCC4)CC3)C2)c(C)c1` (stereo not drawn) [Example 725, 2-(1-(4-methoxy-2,6-dimethylphenylsulfonyl)pyrrolidin-3-yloxy)-N-((4-(1-morpholino-3-phenylpropyl)cyclohexyl)methyl)acetamide], on human μ opiate receptor, the inhibition at 1 µM was 10%. For the same compound, the figures for the inhibition at 10 µM in assay [1] and in assay [2] were 96% and 63%, respectively.

As for `COc1cc(C)c(S(=O)(=O)N2CCC(OCC(=O)NCC3CCC(C(CCc4ccccc4)N4CCCC4)CC3)C2)c(C)c1` (stereo not drawn) [Example 726, 2-(1-(4-methoxy-2,6-dimethylphenylsulfonyl)pyrrolidin-3-yloxy)-N-((4-(3-phenyl-1-(pyrrolidin-1-yl)propyl)cyclohexyl)methyl)acetamide], the inhibition at 1 µM on human μ opiate receptor worked out at 23%. For the same compound, the inhibition at 10 µM in assay [1] amounted to 103%; in assay [2], 94%.

For the compound `CN(CCOCC(=O)NCC1CCC(C(c2ccccc2)N2CCOCC2)CC1)S(=O)(=O)c1c(Cl)cc(C(F)(F)F)cc1Cl` (stereo not drawn) [Example 727, 2-(2-(2,6-dichloro-N-methyl-4-(trifluoromethyl)phenylsulfonamido)ethoxy)-N-((4-(morpholino(phenyl)methyl)cyclohexyl)methyl)acetamide], the inhibition at 1 µM at human μ opiate receptor turned out to be 10%. Besides, the inhibition at 10 µM in assay [1] was 16%; in assay [2] it was 29%.

Turning to `CN(CCOCC(=O)NCC1CCC(C(CCc2ccccc2)N2CCOCC2)CC1)S(=O)(=O)c1c(Cl)cc(C(F)(F)F)cc1Cl` (stereo not drawn) [Example 728, 2-(2-(2,6-dichloro-N-methyl-4-(trifluoromethyl)phenylsulfonamido)ethoxy)-N-((4-(1-morpholino-3-phenylpropyl)cyclohexyl)methyl)acetamide], the inhibition at 1 µM at human μ opiate receptor stood at 12%. Further, the figures for the inhibition at 10 µM in assay [1] and in assay [2] were -9% and 9%, respectively.

Regarding `O=C(COC1CCCN(S(=O)(=O)c2c(Cl)cc(Cl)cc2Cl)C1)NCC1CCC(C(CCc2ccccc2)N2CCCC2)CC1` (stereo not drawn) [Example 729, N-((4-(3-phenyl-1-(pyrrolidin-1-yl)propyl)cyclohexyl)methyl)-2-(1-(2,4,6-trichlorophenylsulfonyl)piperidin-3-yloxy)acetamide], on human μ opiate receptor, the inhibition at 1 µM stood at 79%. The figures for the inhibition at 10 µM in assay [1] and in assay [2] were 92% and 22%, respectively.

`COc1cc(C)c(S(=O)(=O)N2CCCC(OCC(=O)NCC3CCC(C(c4ccccc4)N4CCOCC4)CC3)C2)c(C)c1` (stereo not drawn) [Example 730, 2-(1-(4-methoxy-2,6-dimethylphenylsulfonyl)piperidin-3-yloxy)-N-((4-(morpholino(phenyl)methyl)cyclohexyl)methyl)acetamide]: the inhibition at 1 µM at human μ opiate receptor was determined as 11%. Besides, the inhibition at 10 µM in assay [1] was found to be 46%; in assay [2] it was 38%.

Turning to `COc1cc(C)c(S(=O)(=O)N2CCCC(OCC(=O)NCC3CCC(C(CCc4ccccc4)N4CCCC4)CC3)C2)c(C)c1` (stereo not drawn) [Example 731, 2-(1-(4-methoxy-2,6-dimethylphenylsulfonyl)piperidin-3-yloxy)-N-((4-(3-phenyl-1-(pyrrolidin-1-yl)propyl)cyclohexyl)methyl)acetamide], the inhibition at 1 µM on human μ opiate receptor stood at 49%. Also, the inhibition at 10 µM was 101% in assay [1] and 80% in assay [2].

In the case of `CN1CCN(C(c2ccccc2)C2CCC(NC(=O)COCC3CCCN3S(=O)(=O)c3c(Cl)cc(Cl)cc3Cl)CC2)CC1` (stereo not drawn) [Example 732, N-(4-((4-methylpiperazin-1-yl)(phenyl)methyl)cyclohexyl)-2-((1-(2,4,6-trichlorophenylsulfonyl)pyrrolidin-2-yl)methoxy)acetamide], the inhibition at 1 µM at human μ opiate receptor was determined as 61%. The inhibition at 10 µM is 100% in assay [1] and 84% in assay [2].
